Results published in patent US5614620A, “DNA binding proteins including androgen receptor” (Arch Development Corporation, priority 1993, dated 1997).

Columns and labels:
79 kD hAR protein = biological target: T1, 79 kD hAR protein (Homo sapiens, UniProt P10275); assay: competition of non-radioactive steroids with [^3 H] R1881 binding to hAR made in reticulocyte lysate (hydroxylapatite-filter method)
T1 construct: T7 transcript translated in rabbit reticulocyte lysate; untagged
T1 sequence (P10275 191-920): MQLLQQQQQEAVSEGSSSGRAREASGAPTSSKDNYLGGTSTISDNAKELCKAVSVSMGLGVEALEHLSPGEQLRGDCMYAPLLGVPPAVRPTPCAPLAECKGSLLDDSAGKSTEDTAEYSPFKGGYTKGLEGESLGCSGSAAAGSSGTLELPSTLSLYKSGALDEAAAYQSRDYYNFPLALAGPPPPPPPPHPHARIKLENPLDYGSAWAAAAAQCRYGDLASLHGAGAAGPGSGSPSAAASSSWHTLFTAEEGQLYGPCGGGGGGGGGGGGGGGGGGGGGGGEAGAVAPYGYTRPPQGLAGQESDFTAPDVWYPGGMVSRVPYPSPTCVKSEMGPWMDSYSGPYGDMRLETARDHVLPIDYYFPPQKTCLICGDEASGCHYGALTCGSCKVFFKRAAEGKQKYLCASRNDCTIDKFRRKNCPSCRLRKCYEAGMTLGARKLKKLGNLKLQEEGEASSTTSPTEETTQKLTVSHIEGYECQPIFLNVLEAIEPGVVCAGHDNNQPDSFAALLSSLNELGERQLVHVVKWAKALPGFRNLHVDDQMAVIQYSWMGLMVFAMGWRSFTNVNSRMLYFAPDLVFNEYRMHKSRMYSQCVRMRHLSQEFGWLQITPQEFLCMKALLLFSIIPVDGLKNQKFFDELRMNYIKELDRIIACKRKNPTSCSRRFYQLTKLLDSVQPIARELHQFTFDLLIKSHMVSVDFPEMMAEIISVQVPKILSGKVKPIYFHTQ

AR = settings: Liao, et al. (1973); cited from earlier work
ventral prostate = settings: castrated rats; Neri, et al.; cited from earlier work
TR2 mRNA = TR2 mRNA level in rat ventral prostate (RNA dot hybridization and Northern blot); format: in vivo
Method: (§1) Because rat ventral prostate is an androgen-sensitive organ and contains the greatest amount of AR and TR2 mRNA, the effect of androgen depletion and replacement on the mRNA levels was studied by RNA dot hybridization and Northern blot analysis. […] Urol., 10:123 (1972)], was injected into normal rats for from 2 to 6 days. TR2 mRNA levels were then measured by dot hybridization as described above.

[1] = biological target: AR of rat ventral prostate; settings: read-out: binding constant reported previously, Schilling, et al.; cited from earlier work
hAR in NIH 3T3 cells = settings: 6 of about 100 individual cell lines
From the text: The expression of cloned AR-genes was achieved as follows in a eukaryotic system. NIH 3T3 cells, contact-inhibited cells established from NIH Swiss mouse embryo, were co-transfected with hAR cDNA inserted into pBPVMTH vectors as described by Gorman, "DNA Cloning", 2:143-190 D. M. Glover, ed.; (Oxford, Washington, D.C. 1985). Transfected cells were cloned and grown in multiple-well cell culture plates. About 100 individual cell lines were isolated.

AR mRNA = AR mRNA level in ventral prostate of castrated rats (RNA dot hybridization and Northern blot); format: in vivo; settings: 5 mg/rat/day
Method: as §1

human androgen receptor = settings: Govindan, et al.; cited from earlier work

Compound: C[C@]12CCC(=O)C=C1CC[C@@H]1[C@@H]2[C@@H](O)C[C@@]2(C)[C@H]1CC[C@]2(O)C(=O)CO [Hydrocortisone]
- competition with [^3 H] R1881 binding (in words) (79 kD hAR protein; 79 kD protein, reticulocyte lysate): did not compete well
- remaining activity at 0.05 µM (79 kD hAR protein; read-out: [^3 H] R1881-bound (% of control)): 90%

Compound: C[C@]1(O)CC[C@H]2[C@@H]3CCC4=CC(=O)CCC4=C3C=C[C@@]21C [R1881, 17α-methyl-17β-hydroxy-estra-4,9,11-trien-3-one]
- [^3 H] R1881-bound (% of control) (79 kD hAR protein; reticulocyte lysate har, 0.05 µM): 10 % of control
- AR binding affinity (in words) (AR): binds AR with high affinity

Compound: CC(C)C(=O)Nc1ccc([N+](=O)[O-])c(C(F)(F)F)c1 [Flutamide]
- effect on 5α-dihydrotestosterone action on ventral prostate weights (ventral prostate): antagonizes the effects of 5α-dihydrotestosterone on the ventral prostate weights in castrated rats
- TR2 mRNA level (TR2 mRNA; normal rats, injected for from 2 to 6 days): increased TR2 mRNA levels

Compound: C[C@]1(O)CC[C@H]2[C@@H]3CCC4=CC(=O)CCC4=C3C=C[C@@]21C [[^3 H] R1881, 17α[^3 H]-methyl-17β-hydroxy-estra-4,9,11-trien-3-one]
- Kd [1]: 0.65 nM
- [^3 H] R1881-binding activity relative to cells transfected with pSV2 vector alone (hAR in NIH 3T3 cells): at least 4 fold

Compound: C[C@]12CCC(=O)C[C@@H]1CC[C@@H]1[C@@H]2CC[C@]2(C)[C@@H](O)CC[C@@H]12 [5α-dihydrotestosterone, 17β-hydroxy-5α-androstan-3-one]
- AR mRNA level (AR mRNA): reduced the AR mRNA level to that of normal rats
- TR2 mRNA level (TR2 mRNA; castrated rats, injection, 5 mg/rat/day): reduced the TR2 mRNA to the levels of normal rats

Compound: C[C@]12CCC(=O)C[C@@H]1CC[C@@H]1[C@@H]2CC[C@]2(C)[C@@H](O)CC[C@@H]12 [DHT, dihydrotestosterone]
- binding of tritium-labelled DHT (in words) (human androgen receptor): with high affinity and specificity
